From US5808049A, “Stereospecific 5-fu esters and methods for preparing same” (Director-General of Agency of Industrial Science and …, priority 1994, dated 1998)

Key:
[1] = test system: rat liver cancer cells Anr4; assay: Anticancer effect (suppression of multiplication) on rat liver cancer cells Anr4; format: cell-based; settings: for multiplication of Anr4 cells suppressed to % of the control: same way as in Example 2 (Example 3); for multiplication of Anr4 cells suppressed to % of the control / number of cells, % for the value of the control: 2880 min; for suppression of multiplication of Anr4 cells, comparison of enantiomers: Ib: at 1 μM to 0.1 μM, Ic: at 10 μM; for number of cells, % for the value of the control: 6 hours exposure, then 42 hours in fresh medium
Procedure: The anticancer effect of levo-rotatory or dextro-rotatory 4-bis(2-chloroethyl)aminophenyl 2-methoxy-2-phenylacetate (Ib) on rat liver cancer cells Anr4 was tested. Anr4 cells were suspended, in an amount of cells number of 1×10^6 per 1 ml, in William's E medium containing 10% of fetal bovine serum, and 0.1 ml of the suspension was distributed to each well of a 24-well multiplate. Further, 1.385 ml of the above medium was added to each well. They were cultured for 4 hours at 37° C. in a CO2 incubator, and then 15 μl of pure ethanol or an ethanol solution containing (R)-(-)-Ib or (S)-(+)-Ib obtained in Synthetic. Example 4, having a concentration of 10 mM, 1 mM, 0.1 mM, 0.01 mM, or 0.001 mM, was added to the medium in each well, and they were mixed well.
After they were cultured for 6 hours in the above incubator, the medium was removed by suction, and 1.5 ml of fresh medium was added. After culturing was continued for 42 hours, the number of cells in each well was counted by a Coulter counter. The results, in terms of % for the value of the control (the well added pure ethanol), were 9%, 12%, 16%, 55%, and 95% for the concentrations of 100 μM, 10 μM, 1 μM, 0.1 μM, and 0.01 μM of (R)-(-)-Ib in the medium, respectively. For the concentrations of 100 μM, 10 μM, 1 μM, 0.1 μM, and 0.01 μM of (S)-(+)-Ib in the medium, the results were 9%, 18%, 30%, 83%, and 95%, respectively.
The anticancer effect of the optically active substances of Ic obtained in Synthetic Example 5 on Anr4 cells was tested in the same way as in Example 2. As a result, at 10 μM, (R)-(+)-Ic suppressed the multiplication of Anr4 cells to 14% of the control, and (S)-(-)-Ic suppressed the multiplication of Anr4 cells to 25% of the control.

rat sarcoma cells XC = assay: Stereoselective hydrolysis of anticancer agent esters with rat sarcoma cells XC; settings: XC; 12 hours at 30° C., pH 7.5
Procedure: (§1) Each of the reaction mixtures was prepared by dissolving 1 mg of the ester in 10 μl of ethanol, and by mixing with it, 90 μl of a 0.1M phosphoric acid buffer (having a pH of 7.5), plus one of the following: 100 μl of a cell suspension, or 20 or 30 μl of whole blood, or 50 μl of tissue homogenate. […] The cells numbers in 100 μl of the cell suspension used in the reaction were as follows: rat liver cancer cells Anr4=7×10^6 ; rat pancreas cancer cells ARIP=8×10^6 ; rat sarcoma cells XC=5×10^6 ; human histiocytic leukemia cells U937=1×10^7 ; human pancreas cancer cells MIA PaCa-2=8×10^6 ; and human intestinum crassum cancer cells Colo 320=1×10^7. Fifty μl of the tissue homogenate corresponded to 20 mg of wet tissue.
(§2) Each of these reaction mixtures was stirred for 12 hours at 30° C. by a magnetic stirrer; then 1.5 μl of 2N HCl was added, to bring the pH to about 2.5, and extraction with 1 ml of ethyl acetate in the presence of a saturated sodium chloride was carried out twice. The ethyl acetate layers of each sample were combined, the volume was adjusted to precisely 2 ml, and it was divided into 1.7 ml and 0.3 ml. The former was concentrated under reduced pressure, and the contained produced carboxylic acid was isolated by thin-layer preparative chromatography. A solution of diazomethane in ether was added to it, to methylate it, and the absolute configuration and the optical purity of the methylated product were determined by high-performance liquid chromatography using a chiral column. The latter 0.3 ml was directly methylated, and then it was concentrated and adjusted to 0.3 ml again, and the methyl ester of the contained produced carboxylic acid was determined quantitatively by gas chromatography, from which the hydrolyzed rate was determined. The column used in the high-performance liquid chromatography was a Chiralcell OJ or OD column (trade name; 4.6×250 mm) manufactured by Daicel; the elution was carried out by using a 10% 2-propanol/hexane mixture; and the flow velocity was 1 or 0.75 ml/min. The column used in the gas chromatography was a capillary column of OV-1 (0.25 mm×25 m), and the analysis temperature was 120° to 180° C.

[2] = Stereoselective hydrolysis of anticancer agent esters with normal rat muscle homogenate; settings: 12 hours at 30° C., pH 7.5
in vitro [3] = settings: rat, anr4 cells, pH 7.5
Procedure: as §1, §2

in vitro [4] = settings: rat, xc cells, pH 7.5
Procedure: as §1, §2

[5] = test system: human histiocytic leukemia cells U937; assay: Stereoselective hydrolysis of anticancer agent esters with human histiocytic leukemia cells U937; settings: U937; 12 hours at 30° C., pH 7.5
Procedure: as §1, §2

[6] = test system: rat liver cancer cells Anr4; assay: Stereoselective hydrolysis of anticancer agent esters with rat liver cancer cells Anr4; settings: Anr4; 12 hours at 30° C., pH 7.5
Procedure: as §1, §2

[7] = Stereoselective hydrolysis of anticancer agent esters with normal rat liver homogenate; settings: 12 hours at 30° C., pH 7.5
in vitro [8] = settings: human, mia paca-2 cells, pH 7.5
Procedure: as §1, §2

in vitro [9] = settings: rat, blood, pH 7.5
Procedure: as §1, §2

in vitro [10] = settings: human, colo 320 cells, pH 7.5
Procedure: as §1, §2

in vitro [11] = settings: rat, arip cells, pH 7.5
Procedure: as §1, §2

in vitro [12] = settings: human, blood, pH 7.5
Procedure: as §1, §2

[13] = Stereoselective hydrolysis of anticancer agent esters with normal rat pancreas homogenate; settings: 12 hours at 30° C., pH 7.5
Procedure: as §1, §2

[14] = Stereoselective hydrolysis of anticancer agent esters with rat whole blood; settings: pH 7.5; for enantiomer excess of the carboxylic acid produced by the hydrolysis: rat whole blood, 12 hours at 30° C.; for metabolised at 12 h: rat, whole blood
Procedure: as §1, §2

[15] = Stereoselective hydrolysis of anticancer agent esters with human whole blood; settings: pH 7.5; for enantiomer excess of the carboxylic acid produced by the hydrolysis: human whole blood, 12 hours at 30° C.
Procedure: as §1, §2

[16] = test system: human pancreas cancer cells MIA PaCa-2; assay: Stereoselective hydrolysis of anticancer agent esters with human pancreas cancer cells MIA PaCa-2; settings: MIA PaCa-2; 12 hours at 30° C., pH 7.5
Procedure: as §1, §2

[17] = test system: human intestinum crassum cancer cells Colo 320; assay: Stereoselective hydrolysis of anticancer agent esters with human intestinum crassum cancer cells Colo 320; settings: Colo320; 12 hours at 30° C., pH 7.5
Procedure: as §1, §2

in vitro [18] = settings: human, u937 cells, pH 7.5
Procedure: as §1, §2

[19] = test system: rat pancreas cancer cells ARIP; assay: Stereoselective hydrolysis of anticancer agent esters with rat pancreas cancer cells ARIP; settings: ARIP; 12 hours at 30° C., pH 7.5
Procedure: as §1, §2

[20] = Stereoselective hydrolysis of anticancer agent esters with rat sarcoma cells XC; settings: rat, xc cells, pH 7.5
Procedure: as §1, §2

[21] = Stereoselective hydrolysis of anticancer agent esters with rat liver cancer cells Anr4; settings: rat, anr4 cells, pH 7.5
Procedure: as §1, §2

[22] = Stereoselective hydrolysis of anticancer agent esters with rat pancreas cancer cells ARIP; settings: rat, arip cells, pH 7.5
Procedure: as §1, §2

SMILES: O=C(Oc1ccc(N(CCCl)CCCl)cc1)[C@@H](Cc1ccccc1)NC(=O)C(F)(F)F [(R)-(+)-Ic, 4-bis(2-chloroethyl)aminophenyl 2-trifluoroacetamido-3-phenylpropionate]
- multiplication of Anr4 cells suppressed to % of the control ([1]; 10 μM): 14%
- suppression of multiplication of Anr4 cells, comparison of enantiomers [1]: stronger cell multiplication-suppressing effect than (S)-(-)-Ic

SMILES: CO[C@@H](C(=O)Oc1ccc(N(CCCl)CCCl)cc1)c1ccccc1 [(R)-(-)-Ib, 4-bis(2-chloroethyl)aminophenyl 2-methoxy-2-phenylacetate]
- number of cells, % for the value of the control ([1]; 0.01 μM): 95%
- number of cells, % for the value of the control ([1]; 0.1 μM): 55%
- number of cells, % for the value of the control ([1]; 1 μM): 16%
- number of cells, % for the value of the control ([1]; 10 μM): 12%
- number of cells, % for the value of the control ([1]; 100 μM): 9%
- suppression of multiplication of Anr4 cells, comparison of enantiomers [1]: suppressed the multiplication of Anr4 cells more strongly than dextro-rotatory (S)-(+)-Ib did

SMILES: CO[C@H](C(=O)Oc1ccc(N(CCCl)CCCl)cc1)c1ccccc1 [(S)-(+)-Ib, 4-bis(2-chloroethyl)aminophenyl 2-methoxy-2-phenylacetate]
- number of cells, % for the value of the control ([1]; 0.01 μM): 95%
- number of cells, % for the value of the control ([1]; 0.1 μM): 83%
- number of cells, % for the value of the control ([1]; 1 μM): 30%
- number of cells, % for the value of the control ([1]; 10 μM): 18%
- number of cells, % for the value of the control ([1]; 100 μM): 9%

SMILES: O=C(Oc1ccc(N(CCCl)CCCl)cc1)[C@H](Cc1ccccc1)NC(=O)C(F)(F)F [(S)-(-)-Ic, 4-bis(2-chloroethyl)aminophenyl 2-trifluoroacetamido-3-phenylpropionate]
- multiplication of Anr4 cells suppressed to % of the control ([1]; 10 μM): 25%

SMILES: CC(C(=O)Oc1ccc(N(CCCl)CCCl)cc1)c1ccccc1 (racemic) [Ia, (±)-4-bis(2-chloroethyl)aminophenyl 2-phenylpropionate]
- enantiomer excess of the carboxylic acid produced by the hydrolysis (rat sarcoma cells XC): 18.6 % e.e.
- enantiomer excess of the carboxylic acid produced by the hydrolysis [2]: 1.8 % e.e.
- metabolised at 12 h (in vitro [3]): 20.9%
- metabolised at 12 h (in vitro [4]): 6.3%
- enantiomer excess of the carboxylic acid produced by the hydrolysis [5]: 72.3 % e.e.
- enantiomer excess of the carboxylic acid produced by the hydrolysis [6]: 68.9 % e.e.
- enantiomer excess of the carboxylic acid produced by the hydrolysis [7]: 15.7 % e.e.
- metabolised at 12 h (in vitro [8]): 6%
- metabolised at 12 h (in vitro [9]): 5.8%
- metabolised at 12 h (in vitro [10]): 3%
- metabolised at 12 h (in vitro [11]): 10.2%
- metabolised at 12 h (in vitro [12]): 2.4%
- enantiomer excess of the carboxylic acid produced by the hydrolysis [13]: 1.0 % e.e.
- enantiomer excess of the carboxylic acid produced by the hydrolysis [14]: 9.4 % e.e.
- enantiomer excess of the carboxylic acid produced by the hydrolysis [15]: 9.1 % e.e.
- enantiomer excess of the carboxylic acid produced by the hydrolysis [16]: 87.1 % e.e.
- enantiomer excess of the carboxylic acid produced by the hydrolysis [17]: 68.9 % e.e.
- metabolised at 12 h (in vitro [18]): 5.2%
- enantiomer excess of the carboxylic acid produced by the hydrolysis [19]: 42.8 % e.e.

SMILES: O=C(Oc1ccc(N(CCCl)CCCl)cc1)C(Cc1ccccc1)NC(=O)C(F)(F)F (racemic) [Ic, (±)-4-bis(2-chloroethyl)aminophenyl 2-trifluoroacetamido-3-phenylpropionate]
- enantiomer excess of the carboxylic acid produced by the hydrolysis (rat sarcoma cells XC): 77.9 % e.e.
- enantiomer excess of the carboxylic acid produced by the hydrolysis [2]: 72.4 % e.e.
- metabolised at 12 h (in vitro [3]): 0.6%
- metabolised at 12 h (in vitro [4]): 10.6%
- enantiomer excess of the carboxylic acid produced by the hydrolysis [5]: > 99 % e.e.
- enantiomer excess of the carboxylic acid produced by the hydrolysis [6]: 94.9 % e.e.
- enantiomer excess of the carboxylic acid produced by the hydrolysis [7]: 93.2 % e.e.
- metabolised at 12 h (in vitro [8]): 7.2%
- metabolised at 12 h (in vitro [9]): 18.2%
- metabolised at 12 h (in vitro [10]): 2.4%
- metabolised at 12 h (in vitro [11]): 14.6%
- metabolised at 12 h (in vitro [12]): 8%
- enantiomer excess of the carboxylic acid produced by the hydrolysis [13]: > 99 % e.e.
- enantiomer excess of the carboxylic acid produced by the hydrolysis [14]: 18.3 % e.e.
- enantiomer excess of the carboxylic acid produced by the hydrolysis [15]: 23.7 % e.e.
- enantiomer excess of the carboxylic acid produced by the hydrolysis [16]: 2.6 % e.e.
- enantiomer excess of the carboxylic acid produced by the hydrolysis [17]: 35.9 % e.e.
- metabolised at 12 h (in vitro [18]): 9.6%
- enantiomer excess of the carboxylic acid produced by the hydrolysis [19]: 83.0 % e.e.

SMILES: CC(C(=O)OC[C@H]1O[C@@H](n2cc(F)c(=O)[nH]c2=O)[C@H](O)[C@@H]1O)c1ccccc1 (stereo partly drawn) [IIa, 5'-(RS)-(2-phenylpropionyl)-5-fluorouridine]
- metabolised at 12 h [20]: 16.8%
- enantiomer excess of the carboxylic acid produced by the hydrolysis (rat sarcoma cells XC): 82.1 % e.e.
- enantiomer excess of the carboxylic acid produced by the hydrolysis [2]: 61.7 % e.e.
- enantiomer excess of the carboxylic acid produced by the hydrolysis [5]: 38.2 % e.e.
- metabolised at 12 h [21]: 26.3%
- enantiomer excess of the carboxylic acid produced by the hydrolysis [6]: 81.6 % e.e.
- enantiomer excess of the carboxylic acid produced by the hydrolysis [7]: 85.6 % e.e.
- enantiomer excess of the carboxylic acid produced by the hydrolysis [13]: 36.9 % e.e.
- enantiomer excess of the carboxylic acid produced by the hydrolysis [14]: 53.7 % e.e.
- metabolised at 12 h [14]: 6.3%
- enantiomer excess of the carboxylic acid produced by the hydrolysis [15]: 12.5 % e.e.
- metabolised at 12 h ([15]; human, whole blood): 5.3%
- metabolised at 12 h [22]: 25.2%
- enantiomer excess of the carboxylic acid produced by the hydrolysis [19]: 91.3 % e.e.

SMILES: COC(C(=O)OC[C@H]1O[C@@H](n2cc(F)c(=O)[nH]c2=O)[C@H](O)[C@@H]1O)c1ccccc1 (stereo partly drawn) [IIb, 5'-(RS)-(2-methoxy-2-phenylacetyl)-5-fluorouridine]
- metabolised at 12 h [20]: 23%
- enantiomer excess of the carboxylic acid produced by the hydrolysis (rat sarcoma cells XC): 81.5 % e.e.
- enantiomer excess of the carboxylic acid produced by the hydrolysis [2]: 18.5 % e.e.
- metabolised at 12 h [21]: 23.7%
- enantiomer excess of the carboxylic acid produced by the hydrolysis [6]: 81.1 % e.e.
- enantiomer excess of the carboxylic acid produced by the hydrolysis [7]: 6.0 % e.e.
- enantiomer excess of the carboxylic acid produced by the hydrolysis [13]: 42.5 % e.e.
- enantiomer excess of the carboxylic acid produced by the hydrolysis [14]: 55.0 % e.e.
- metabolised at 12 h [14]: 14.8%
- metabolised at 12 h [22]: 27.7%
- enantiomer excess of the carboxylic acid produced by the hydrolysis [19]: 84.1 % e.e.

SMILES: COC(C(=O)Oc1ccc(N(CCCl)CCCl)cc1)c1ccccc1 (racemic) [Ib, (±)-4-bis(2-chloroethyl)aminophenyl 2-methoxy-2-phenylacetate]
- enantiomer excess of the carboxylic acid produced by the hydrolysis (rat sarcoma cells XC): 69.9 % e.e.
- enantiomer excess of the carboxylic acid produced by the hydrolysis [2]: 46.0 % e.e.
- metabolised at 12 h (in vitro [3]): 14%
- metabolised at 12 h (in vitro [4]): 23.9%
- enantiomer excess of the carboxylic acid produced by the hydrolysis [6]: 91.3 % e.e.
- enantiomer excess of the carboxylic acid produced by the hydrolysis [7]: 33.2 % e.e.
- metabolised at 12 h (in vitro [9]): 55.2%
- metabolised at 12 h (in vitro [11]): 55.2%
- enantiomer excess of the carboxylic acid produced by the hydrolysis [13]: 8.4 % e.e.
- enantiomer excess of the carboxylic acid produced by the hydrolysis [14]: 20.4 % e.e.
- enantiomer excess of the carboxylic acid produced by the hydrolysis [19]: 26.8 % e.e.
